Source: article PMC9982591, “Inflammation‐Controlled Anti‐Inflammatory Hydrogels” (Advanced Science, 2022)

Columns and labels:
calcineurin = calcineurin (Homo sapiens, UniProt P62937+P63098+Q08209)
extracellular CypA = details: cited from earlier work
cyclophilin A (CypA) = cyclophilin A (CypA) (Homo sapiens, UniProt P62937); test: PPIase inhibition; assay type: biochemical; details: PPIase assay, Table S2
Method: From the activity against the inhibitor concentrations, the IC50 and the K i value were determined with nonlinear curve fitting according to the models of Morrison^[ [41] ^] and Murphy.^[ [42] ^]

[1] = biological target: T1, human neutrophil elastase (Homo sapiens, UniProt P08246); test: Enzymatic cleavage of elastase-responsive peptide and PEG-AAPV conjugate; assay type: biochemical; details: 7 mmol/L AAPV peptide, 20 nmol/L human neutrophil elastase, PBS pH 7.4, 37 °C, analytical HPLC
T1 construct: purchased Merck/Calbiochem
T1 sequence (P08246 30-267): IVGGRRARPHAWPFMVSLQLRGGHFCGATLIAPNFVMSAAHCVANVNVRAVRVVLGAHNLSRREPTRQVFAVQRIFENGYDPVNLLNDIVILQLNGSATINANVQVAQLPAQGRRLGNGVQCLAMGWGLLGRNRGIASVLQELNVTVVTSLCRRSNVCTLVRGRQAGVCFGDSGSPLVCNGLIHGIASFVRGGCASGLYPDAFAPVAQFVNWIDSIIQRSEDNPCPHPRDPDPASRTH
Method: starPEG-peptide conjugate with full starPEG arm saturation by the leukocyte elastas e responsive AAPV peptide was added to the reaction solution in 4-fold excess, to finally result […]
The reaction mixture was directly used for hydrogel format ion.
S1.3. Supplement –Basic analysis
Enzymatic clea vage of el astase- responsive peptide and PEG-AAPV conjug ate To analyze leuko cyte elastase mediated hydrolysis of the responsive peptide and the corresponding conjugate, 7 mmol L -1 AAPV peptide or 0.7 mmol L -1 starPEG-AAPV conjugate w er e incub ated with 20 nmol L -1 human neutrophil el astase in PBS, pH 7.4 at 37°C.
The enzymatic reaction was evaluated after indicated timepoints by analytical HPLC, followed by integral anal ysis of the peak signals for educt and cleavage products.
Inhibition of leukocyte el astaseby heparin
To evaluate the influence of the hydrogel component heparin on the activity of leukocyte elastase, samples with heparin sodium salt concentrations of 0.001- 1 000µg mL -1 were prepared in 50mmol L -1 Tris-HCl pH 7.4 supplemented with 100mmol L -1 NaCl and 0.1% BSA and pre-incubated with 10nmol L -1 leukocyte elastase for 5 min. […]

complement system = test: Complement activation in whole blood with zymosan (C5a ELISA); assay type: cell-based, human; details: zymosan 10 µg/mL, 30 min, 37 °C, 4W9A alone and conjugated to cleavage fragment (Figure S4, 10 µmol/L, n = 3)
Method: Figure 3 Cleavage of inflammation‐responsive hydrogels in an in vitro inflammation model and assessment of the anti‐inflammatory effects of the released drugs. A) For hydrogel cleavage, isolated polymorphonuclear granulocytes (PMN) are activated with complement‐opsonized zymosan (OPZ) in cell culture media and incubated with the hydrogel over 2 h at 37 °C. The cell‐free supernatant containing the released bioactive is used to test the anti‐inflammatory effect in the corresponding system. B) 4W9A: Measurement of complement activation in whole blood activated with zymosan. C) PMX53: Activation of isolated PMN by zymosan activated serum, measured as CD11b expression (*P < 0.05, **P < 0.01 in t‐test).
The amount of Atto488 released from the hydrogel as a model drug was determined by fluorescence measurement at λ ex. = 485 nm/λ em. = 535 nm against an Atto488 standard. […] Cell activation was determined by flow cytometry using CD11b‐VioBlue staining (Biolegend) for isolated granulocytes and additionally CD14‐APC and CD41a‐FITC (both BD Biosciences, New Jersey, USA) for whole blood samples. Leukocyte elastase and C5a concentrations were determined using the commercial ELISA kits Hycult human elastase ELISA (Hycult Biotech, Uden, Netherlands) and C5a micro ELISA (DRG, Marburg, Germany) according to the manufactures instructions.

leukocyte = system: leukocyte; set-up: method as in PMID 10354404; details: specific for C5aR1; cited from earlier work
[2] = biological target: C5a receptor (C5aR1 or CD88); details: C5a receptor inhibitor; read-out: IC50 of PMX53; cited from earlier work
Text: PMX53 is derived from the C‐terminus of the C5a fragment. Therefore, N‐terminal sequence extension by a glycine spacer and a cysteine group appeared possible without loss of activity.^[ [19], [30] ^] (Table S1, Supporting Information). The obtained peptide was linked to the elastase‐responsive hydrogel platform as an anti‐inflammatory feedback control system. The low IC50 concentration (IC50 = 20 nmol L^−1[ [19] ^]) allowed for a low functionalization degree at the hydrogel of only 2% of the starPEG‐AAPV‐arms.

human leukocyte elastase = test: Inhibition of leukocyte elastase by heparin; assay type: biochemical; details: U-shaped, heparin 0.01–5 µg/mL (≈0.002–1 U/mL); 10 nmol/L elastase, 250 µmol/L MeOSuc-Ala-Ala-Pro-Val-pNA, Tris-HCl pH 7.4, 100 mmol/L NaCl, 0.1% BSA, 5 min pre-incubation, 37 °C, 30 min, 405 nm; normalized to control without heparin; mean ± SD of n=2
Method: Figure S2: Inhibition of leukocyte elastase by heparin. A concentration of 10 nmol L-1 human leukocyte elastase was used to cleave 250 µmol L -1 chromogenic substrate in the presence of different heparin concentrations. The substrate cleavage was monitored photometrically at a wavelength of 405nm by the release of p- nitroaniline from the chromogenic substrate methoxysuccinyl-Ala-Al a-Pro-V al-pNA over 30 min. Values were normalized to a cont rol sample without heparin; mean ± SD of n=2.
(1 picture or pasted object on this page, not shown here) […]
The enzymatic reaction was evaluated after indicated timepoints by analytical HPLC, followed by integral anal ysis of the peak signals for educt and cleavage products. […]
To evaluate the influence of the hydrogel component heparin on the activity of leukocyte elastase, samples with heparin sodium salt concentrations of 0.001- 1 000µg mL -1 were prepared in 50mmol L -1 Tris-HCl pH 7.4 supplemented with 100mmol L -1 NaCl and 0.1% BSA and pre-incubated with 10nmol L -1 leukocyte elastase for 5 min. Subsequently, the cleavage of 250 µmol L-1 chromogenic substrate MeOSuc-Ala-Ala-Pro-V al-pNA by leukocyte elastase in the presence of the different heparin concentrations was measured as reaction kinetic at 37°C for 30min using the Spark TM 10M multimode microplate reader (Tecan) at 405 nm and c ompared to a cont rol without heparin.

α1‐antitrypsin = details: cited from earlier work
Text: (§1) The heparin component of the hydrogel matrix provides favorable additional anti‐inflammatory properties and interacts with the cleaving enzyme in different ways: Elastase has an anion binding site, which mediates binding to the DNA in neutrophil extracellular traps (NETs), to heparin and heparan sulfates, and also leads to accumulation at the hydrogel.^[ [21] ^] […] Additionally, direct inhibition of elastase acti ...

elastase = details: cited from earlier work
Text: as §1

Chain of calcineurin (P63098 whole entry, other chains not shown): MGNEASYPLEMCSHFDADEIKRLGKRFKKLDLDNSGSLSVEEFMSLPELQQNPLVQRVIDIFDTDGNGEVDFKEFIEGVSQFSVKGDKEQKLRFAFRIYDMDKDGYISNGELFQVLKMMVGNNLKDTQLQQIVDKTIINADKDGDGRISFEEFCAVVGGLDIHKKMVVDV
Chain of calcineurin (P62937 whole entry, other chains not shown): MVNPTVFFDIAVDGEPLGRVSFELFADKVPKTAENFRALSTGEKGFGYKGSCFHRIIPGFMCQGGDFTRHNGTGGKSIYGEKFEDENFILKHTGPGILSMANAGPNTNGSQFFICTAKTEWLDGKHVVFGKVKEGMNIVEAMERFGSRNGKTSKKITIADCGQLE
Chain of cyclophilin A (CypA) (P62937 whole entry): as the sequence (P62937 whole entry, other chains not shown) above

## CC[C@@H]1NC(=O)[C@H]([C@H](O)[C@H](C)Cc2nc3cc(C(=O)O)ccc3[nH]2)N(C)C(=O)[C@H](C(C)C)N(C)C(=O)[C@H](CC(C)C)N(C)C(=O)[C@H](CC(C)C)N(C)C(=O)[C@@H](C)NC(=O)[C@H](C)NC(=O)[C@H](CC(C)C)N(C)C(=O)[C@H](C(C)C)NC(=O)[C@H](CC(C)C)N(C)C(=O)CN(C)C1=O [MM284]
calcineurin
  calcineurin: concentration up to which no inhibition was found: ≥ 15 µmol/L
Extracellular CypA
  extracellular CypA inhibition / immunosuppression: inhibits extracellular CypA, providing anti‐inflammatory without immunosuppressive activity

## CC[C@@H]1NC(=O)[C@H]([C@H](O)[C@H](C)Cc2nc3cc(C(=O)N[C@H](CCC(=O)O)C(=O)N[C@H](CCC(=O)O)C(=O)N[C@H](CCC(=O)O)C(=O)N[C@H](CCC(=O)O)C(=O)N[C@H](CCC(=O)O)C(=O)N[C@H](CCC(=O)O)C(=O)NCC(=O)N[C@@H](CCCCN)C(=O)NCC(=O)N[C@@H](C)C(=O)N[C@@H](C)C(=O)N4CCC[C@H]4C(=O)N[C@H](C(=O)NCC(=O)NCC(=O)N[C@@H](CS)C(N)=O)C(C)C)ccc3[nH]2)N(C)C(=O)[C@H](C(C)C)N(C)C(=O)[C@H](CC(C)C)N(C)C(=O)[C@H](CC(C)C)N(C)C(=O)[C@@H](C)NC(=O)[C@H](C)NC(=O)[C@H](CC(C)C)N(C)C(=O)[C@H](C(C)C)NC(=O)[C@H](CC(C)C)N(C)C(=O)CN(C)C1=O [MM623]
Cyclophilin A (CypA)
  CypA inhibition compared with MM284: comparable to MM284
calcineurin
  calcineurin: concentration up to which no inhibition was found: ≥ 20 µmol/L

## H2N-GWGAAPV-↑-RGGCG-CONH2
[1]
  cleavage rate of the free peptide by elastase: 0.36 s⁻¹

## Mal-l[CVWQDWGAHRC]-T-CONH2 (disulfide) [4W9A]
Complement system
  inhibitor concentration that should be exceeded for complement inhibition: > 2 µmol/L

## PMX53
leukocyte
  effect on leukocyte stimulation by cytokines, leukotriene B4, endotoxins, or formylated peptides: has no effect on leukocyte stimulation by cytokines, leukotriene B4, endotoxins, or formylated peptides
[2]
  IC50: 20 nM

## heparin
Human leukocyte elastase
  suppression of elastase activity to (residual activity): about 50%
α1‐antitrypsin
  α1-antitrypsin activity: decreases the activity of α1‐antitrypsin
elastase
  elastase activity inhibition by heparin binding: direct inhibition of elastase activity by heparin binding has been reported
